From the NIST ThermoML archive (doi:10.1016/j.jct.2011.02.018)

Assay: xn = mol fraction of the nth substance listed
Settings: 101 kPa, Liquid; for viscosity: Concentric cylinders viscometry; for mass density: Vibrating tube method

COC(C)(C)C [2-methoxy-2-methylpropane] + CCO
Settings | mass density, 293.15 K [kg/m3] | mass density, 298.15 K [kg/m3] | viscosity, 293.15 K [mPa·s] | viscosity, 298.15 K [mPa·s]
x1 = 0.0097 | 789.03 | 784.78 | 1.174 | 1.067
x1 = 0.0198 | 788.28 | 783.99 | 1.146 | 1.043
x1 = 0.0301 | 787.54 | 783.23 | 1.118 | 1.027
x1 = 0.0402 | 786.85 | 782.54 | 1.092 | 0.9956
x1 = 0.0502 | 786.37 | 782.01 | 1.073 | 0.9782
x1 = 0.0583 | 785.66 | 781.32 | 1.049 | 0.9582
x1 = 0.07 | 784.87 | 780.51 | 1.023 | 0.9337
x1 = 0.0801 | 784.2 | 779.82 | 1 | 0.9146
x1 = 0.0861 | 783.96 | 779.52 | 0.9912 | 0.9061
x1 = 0.1009 | 782.99 | 778.56 | 0.9622 | 0.8805
x1 = 0.154 | 779.59 | 775.08 | 0.8624 | 0.792
x1 = 0.2006 | 776.77 | 772.21 | 0.7889 | 0.7263
x1 = 0.2471 | 774.06 | 769.46 | 0.7261 | 0.6707
x1 = 0.2975 | 771.22 | 766.56 | 0.6675 | 0.6182
x1 = 0.3487 | 768.46 | 763.75 | 0.6166 | 0.5722
x1 = 0.3976 | 765.94 | 761.16 | 0.5761 | 0.5357
x1 = 0.4532 | 763.17 | 758.36 | 0.5354 | 0.4987
x1 = 0.5007 | 760.96 | 756.08 | 0.5062 | 0.4708
x1 = 0.5505 | 758.76 | 753.83 | 0.4798 | 0.4482
x1 = 0.5998 | 756.62 | 751.67 | 0.4564 | 0.426
x1 = 0.6484 | 754.48 | 749.51 | 0.4361 | 0.4083
x1 = 0.6995 | 752.35 | 747.32 | 0.4156 | 0.39
x1 = 0.749 | 750.35 | 745.3 | 0.3998 | 0.3751
x1 = 0.7995 | 748.36 | 743.27 | 0.3844 | 0.3616
x1 = 0.8496 | 746.44 | 741.31 | 0.3715 | 0.3488
x1 = 0.9009 | 744.51 | 739.34 | 0.3589 | 0.3384
x1 = 0.9093 | 744.2 | 739.04 | 0.3573 | 0.3382
x1 = 0.9166 | 743.9 | 738.72 | 0.3534 | 0.3338
x1 = 0.9299 | 743.35 | 738.18 | 0.352 | 0.3326
x1 = 0.9398 | 742.96 | 737.79 | 0.35 | 0.3294
x1 = 0.9501 | 742.54 | 737.38 | 0.348 | 0.3264
x1 = 0.9597 | 742.15 | 736.97 | 0.3458 | 0.3256
x1 = 0.968 | 741.84 | 736.66 | 0.3444 | 0.3247
x1 = 0.9802 | 741.35 | 736.15 | 0.3418 | 0.3226
x1 = 0.9868 | 741.1 | 735.92 | 0.3421 | 0.3209
